{"source": "paper PMC4842970", "about": "“Bioactivity Focus of α-Cyano-4-hydroxycinnamic acid (CHCA) Leads to Effective Multifunctional Aldose Reductase Inhibitors” (Scientific Reports, 2016)", "key": {"[1]": {"experiment": "ORACFL radical absorbance capacity assay", "description": "With the CHCA scaffold, we hypothesized that 5a–j should have antioxidant activity. Therefore, a radical absorbance capacity assay (ORACFL)[41] was employed to assess their capacities. This method is based on the inhibition of peroxyl-radical-induced oxidation initiated by thermal decomposition of azo-compounds, in this case 2,2′-azo-bis (2-amidinopropane) dihydrochloride (AAPH). Trolox (6-hydroxy-2,5,7,8-tetramethylchroman-2-carboxylic acid) was used as a standard reference. Data is expressed as micromoles of Trolox equivalents (TE) per […] of sample (μmol TE/ml or U/ml).\nAntioxidant capacity was determined according to the procedure described previously."}, "HEK293 cells": {"test_system": "HEK293 cells", "experiment": "Cytotoxicity, MTT growth inhibition", "assay_type": "cell-based, human", "conditions": "500 μM", "procedure": "In another aspect, the toxicity was evaluated by the growth inhibition of 5f against human embryonic kidney 293 (HEK293) cells. It was shown that 5f was nontoxic to HEK293 cells even at high concentration of 500 μM (Supplementary B of Fig. S2).\nHEK293 cells were purchased from Centre of Cells Resource, Shanghai Institute of Life Science, Chinese Academy of Sciences, P. R. China. HEK293 cells in the exponential phase were plated on a 96-well cell culture plate with 5 × 10^3 cells in each well supplemented with 100 U/ml of penicillin and 100 μg/ml of streptomycin, which were cultured in a humidified atmosphere of 95% and 5% CO2 at 37 °C for 24 h. The cells were adherent. […] 6 wells were set for each group. The wells without addition of the drug were set as controls. The cells in each of the wells were cultured for another 24 h. Then 15 μl of MTT (5 mg/mL) was added to each well. The plates were then incubated at 37 °C for 4 hours, then the supernatants were discarded. 150 μL of DMSO solutions were added to each of the wells and the solutions were mixed thoroughly. Then the plates were incubated at 37 °C for another 10 minutes. Each sample was mixed again and the resulting formazan was measured by its absorbance at 570 nm using a BIO-RAD680 plate reader (Thermo, USA). The experiments were repeated at least 3 times and compared with the control experiment. […]"}, "sorbitol content": {"test_system": "sorbitol content", "experiment": "Sorbitol content in glucose-treated embryos", "assay_type": "in vivo", "conditions": "glucose-treated chick embryos, EDD 5, dose 1 μM", "procedure": "As expected, treatment of 5f decreased ALR2 activity in a dose-dependent manner. […] However, EDA, which is a clinical radical scavenger, was shown no effect on the inhibition of ALR2.\nEmbryos on EDD 5 were homogenized with chicken saline and centrifuged (4 °C, 10000 rpm, 10 min). The supernatant was used for measuring AR activity in the sample. A chicken AR ELISA kit (Jianglai Biotechnology, China) were used for detection. The concentration of AR in the samples was then determined by comparing the OD of the samples to the standard curve. The sorbitol contents of the chick embryo were determined by a Sorbitol Colorimetric Assay Kit (BioVision, USA). In the assay, sorbitol is oxidized to fructose with the proportional development of intense color with an absorbance maximum at 560 nm."}, "ALR1": {"molecular_target": "T1, ALR1 (Gallus gallus, UniProt Q5ZK84)", "T1 construct": "Embryos on EDD 5 were homogenized with chicken saline and centrifuged; from tissue; host or cells: EDD 5 chick (leghorn) embryo homogenate supernatant", "T1 sequence (Q5ZK84 1-327)": "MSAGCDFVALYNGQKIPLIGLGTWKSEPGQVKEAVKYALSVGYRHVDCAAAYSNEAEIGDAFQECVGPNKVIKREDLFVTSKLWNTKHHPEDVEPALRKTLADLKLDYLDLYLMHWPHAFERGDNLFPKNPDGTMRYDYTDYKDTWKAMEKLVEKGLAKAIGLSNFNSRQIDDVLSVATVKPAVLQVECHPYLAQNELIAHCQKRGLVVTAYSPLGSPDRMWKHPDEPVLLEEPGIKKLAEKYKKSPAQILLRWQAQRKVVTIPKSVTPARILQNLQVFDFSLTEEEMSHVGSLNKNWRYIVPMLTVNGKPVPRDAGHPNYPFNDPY", "experiment": "ALR1 activity in glucose-treated embryos (chicken ALR1 ELISA kit)", "assay_type": "in vivo", "conditions": "glucose-treated chick embryos, EDD 5, compared with the model group", "procedure": "Embryos on EDD 5 were homogenized with chicken saline and centrifuged (4 °C, 10000 rpm, 10 min). The supernatant was used for measuring ALR1 activity in the sample. A chicken ALR1 ELISA kit (Jianglai Biotechnology, China) were used for detection. The concentration of ALR1 in the samples was then determined by comparing the OD of the samples to the standard curve."}, "Pax3": {"test_system": "Pax3", "experiment": "Pax3 protein expression in chick embryos (Western blotting)", "assay_type": "in vivo", "conditions": "glucose-treated chick embryos, EDD 5", "procedure": "Figure 4 5f restored neural tube development and marker expression in chick embryos on EDD 5. Glucose concentration (A) and Pax3 protein expression (B) were determined in chick embryos. The plasma glucose concentration was measured using a glucose oxidase-coupled spectrophotometric assay kit. Proteins were detected using the monoclonal antibody anti-Pax3 diluted 1:1000 (DSHB, USA) and visualized using anti-mouse IgG conjugated with horseradish peroxidase (HRP) and Pierce ECL Western Blotting Substrate (Thermo Fisher Scientific, USA) as the substrate of HRP. […] Values were expressed as mean ± SD in each group (n = 10). *P < 0.05, **P < 0.01 vs. control. ^#P < 0.05, ^##P < 0.01 vs. glucose.\nThe eyes of EDD 5 chick embryos were separated and lysed in lysis buffer (Beyotime Institute of Biotechnology, China) on ice for 10 min. After centrifugation of the cell suspension at 12000 rpm for 15 min, the protein content of the supernatant was determined with a Pierce BCA protein assay kit (Thermo Fisher Scientific, USA) to ensure equal sample loading. […] Proteins were detected using the monoclonal antibody anti-Pax3 diluted 1:1000 (DSHB, USA) and visualized using anti-mouse IgG conjugated with horseradish peroxidase (HRP) and Pierce ECL Western Blotting Substrate (Thermo Fisher Scientific, USA) as the substrate of HRP."}}, "data": [{"smiles": "CC(=O)N[C@H](COCc1ccccc1)C(=O)NCCCNC(=O)/C(C#N)=C/c1ccc(O)cc1", "note": "[Compound 5f, (R,E) - N - (3-(2-acetamido-3-(benzyloxy)propanamido)propyl)-2-cyano-3-(4-hydroxyphenyl)acrylamide]", "values": [{"measurement": "ORAC", "setting": "[1]; 3.125 μg/ml", "result": "68.1 ± 2.3", "unit": "U/ml"}, {"measurement": "ORAC", "setting": "[1]; 6.25 μg/ml", "result": "66.5 ± 1.6", "unit": "U/ml"}, {"measurement": "ORAC", "setting": "[1]; 12.5 μg/ml", "result": "65.7 ± 5.1", "unit": "U/ml"}, {"measurement": "ORAC value", "setting": "[1]; concentration of 3.125 μM", "result": 65.7, "unit": "U/ml"}, {"measurement": "inhibition rate (growth inhibition)", "setting": "HEK293 cells", "result": 19.2, "unit": "%"}, {"measurement": "sorbitol content in embryo", "setting": "sorbitol content", "result": "decreased significantly"}, {"measurement": "ALR1 level in embryo", "setting": "ALR1", "result": "no obvious change"}, {"measurement": "Pax3 expression", "setting": "Pax3", "result": "restored"}]}]}
